Reference: US20130338106A1, “COMPOUNDS INHIBITING LEUCINE-RICH REPEAT KINASE ENZYME ACTIVITY” (priority 2011, published 2013)

Assays:
Format in all cases: biochemical
Settings in all cases: tested at 10 uM, read-out: percent inhibition of the kinase activity
[1] = molecular target: T1, ABL (Homo sapiens, UniProt P00519); test: ProfilerPro Kinase Selectivity, ABL
T1 construct: purchased Caliper LifeSciences
Procedure: (§1) Kinome selectivity profiling was performed using two example compounds according to the manufacturer's instructions using Caliper LifeSciences' ProfilerPro Kinase Selectivity Assay Kits. Compounds prepared in Examples 1 and 7 were tested at 10 uM and data were recorded using the Caliper LabChip® EZ Reader™. Each compounds' percent inhibition of the kinase activity measured in this manner is reported in the following lists.

[2] = molecular target: T2, ABL Q252H (Homo sapiens, UniProt P00519, Q252H); test: ProfilerPro Kinase Selectivity, ABL Q252H
T2 construct: purchased Caliper LifeSciences
Procedure: as §1

[3] = molecular target: T3, ABL T315I (Homo sapiens, UniProt P00519, T315I); test: ProfilerPro Kinase Selectivity, ABL T315I
T3 construct: purchased Caliper LifeSciences
Procedure: as §1

[4] = molecular target: T4, ABL1 E255K (Homo sapiens, UniProt P00519, E255K); test: ProfilerPro Kinase Selectivity, ABL1 E255K
T4 construct: purchased Caliper LifeSciences
Procedure: as §1

[5] = molecular target: T5, AKT2 (Homo sapiens, UniProt P31751); test: ProfilerPro Kinase Selectivity, AKT2
T5 construct: purchased Caliper LifeSciences
Procedure: as §1

[6] = molecular target: T6, AMPKA2/B1/G1 (Homo sapiens, UniProt P54646); test: ProfilerPro Kinase Selectivity, AMPKA2/B1/G1
T6 construct: purchased Caliper LifeSciences
T6 sequence (P54646 whole entry): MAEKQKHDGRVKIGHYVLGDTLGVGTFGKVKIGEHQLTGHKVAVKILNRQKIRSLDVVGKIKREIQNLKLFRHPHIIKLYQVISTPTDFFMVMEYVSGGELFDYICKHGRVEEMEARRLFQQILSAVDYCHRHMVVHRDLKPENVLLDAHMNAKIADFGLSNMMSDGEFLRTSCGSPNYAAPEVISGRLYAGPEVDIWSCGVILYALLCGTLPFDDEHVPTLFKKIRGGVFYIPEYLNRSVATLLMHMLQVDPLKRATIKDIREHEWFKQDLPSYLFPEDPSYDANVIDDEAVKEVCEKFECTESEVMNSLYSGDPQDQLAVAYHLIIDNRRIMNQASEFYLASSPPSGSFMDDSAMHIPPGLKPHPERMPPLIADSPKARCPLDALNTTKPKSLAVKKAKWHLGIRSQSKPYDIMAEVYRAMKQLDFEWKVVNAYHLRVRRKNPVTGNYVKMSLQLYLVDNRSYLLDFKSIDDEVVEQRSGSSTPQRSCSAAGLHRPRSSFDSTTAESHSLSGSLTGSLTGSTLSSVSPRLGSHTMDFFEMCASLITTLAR
T6 sequence (Q9Y478 whole entry partner): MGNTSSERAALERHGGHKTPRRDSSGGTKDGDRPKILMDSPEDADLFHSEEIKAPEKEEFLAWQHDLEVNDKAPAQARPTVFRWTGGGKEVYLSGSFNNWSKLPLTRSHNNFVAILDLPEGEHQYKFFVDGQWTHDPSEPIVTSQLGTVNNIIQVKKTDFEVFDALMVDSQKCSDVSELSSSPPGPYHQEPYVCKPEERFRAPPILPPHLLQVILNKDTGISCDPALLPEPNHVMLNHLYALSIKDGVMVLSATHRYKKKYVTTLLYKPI
T6 sequence (P54619 whole entry partner): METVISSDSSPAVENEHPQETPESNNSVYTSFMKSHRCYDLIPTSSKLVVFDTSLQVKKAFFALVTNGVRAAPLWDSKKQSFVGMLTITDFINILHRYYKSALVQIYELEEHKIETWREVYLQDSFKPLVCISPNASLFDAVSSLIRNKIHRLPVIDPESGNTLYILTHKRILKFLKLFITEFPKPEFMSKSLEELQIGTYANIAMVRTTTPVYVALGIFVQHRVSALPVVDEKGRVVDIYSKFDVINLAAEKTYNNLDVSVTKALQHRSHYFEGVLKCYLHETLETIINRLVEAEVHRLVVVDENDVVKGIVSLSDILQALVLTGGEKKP
Procedure: as §1

[7] = molecular target: T7, BLK (Homo sapiens, UniProt P51451); test: ProfilerPro Kinase Selectivity, BLK
T7 construct: purchased Caliper LifeSciences
Procedure: as §1

[8] = molecular target: T8, BMX (Homo sapiens, UniProt P51813); test: ProfilerPro Kinase Selectivity, BMX
T8 construct: purchased Caliper LifeSciences
Procedure: as §1

[9] = molecular target: T9, CK1D (Homo sapiens, UniProt P48730); test: ProfilerPro Kinase Selectivity, CK1D
T9 construct: purchased Caliper LifeSciences
T9 sequence (P48730 whole entry): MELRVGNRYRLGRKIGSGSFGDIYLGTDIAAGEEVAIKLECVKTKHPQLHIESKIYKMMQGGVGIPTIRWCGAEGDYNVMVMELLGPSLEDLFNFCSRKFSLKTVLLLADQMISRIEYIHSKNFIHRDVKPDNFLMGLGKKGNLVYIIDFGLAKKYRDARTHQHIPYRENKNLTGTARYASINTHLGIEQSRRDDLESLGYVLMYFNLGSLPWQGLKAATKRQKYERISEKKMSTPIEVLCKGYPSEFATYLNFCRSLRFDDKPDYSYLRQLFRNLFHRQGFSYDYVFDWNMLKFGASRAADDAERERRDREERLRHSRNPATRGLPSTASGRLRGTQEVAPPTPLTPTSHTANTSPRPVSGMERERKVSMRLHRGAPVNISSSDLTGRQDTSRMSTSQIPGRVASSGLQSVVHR
Procedure: as §1

[10] = molecular target: T10, CLK2 (Homo sapiens, UniProt P49760); test: ProfilerPro Kinase Selectivity, CLK2
T10 construct: purchased Caliper LifeSciences
Procedure: as §1

[11] = molecular target: T11, DCAMKL1 (Homo sapiens, UniProt O15075); test: ProfilerPro Kinase Selectivity, DCAMKL1
T11 construct: purchased Caliper LifeSciences
Procedure: as §1

[12] = molecular target: T12, EGFR T790M L858R (Homo sapiens, UniProt P00533, L858R/T790M); test: ProfilerPro Kinase Selectivity, EGFR T790M L858R
T12 construct: purchased Caliper LifeSciences
Procedure: as §1

[13] = molecular target: T13, EPHA3 (Homo sapiens, UniProt P29320); test: ProfilerPro Kinase Selectivity, EPHA3
T13 construct: purchased Caliper LifeSciences
Procedure: as §1

[14] = molecular target: T14, FLT4 (Homo sapiens, UniProt P35916); test: ProfilerPro Kinase Selectivity, FLT4
T14 construct: purchased Caliper LifeSciences
T14 sequence (P35916 25-1363, species assumed): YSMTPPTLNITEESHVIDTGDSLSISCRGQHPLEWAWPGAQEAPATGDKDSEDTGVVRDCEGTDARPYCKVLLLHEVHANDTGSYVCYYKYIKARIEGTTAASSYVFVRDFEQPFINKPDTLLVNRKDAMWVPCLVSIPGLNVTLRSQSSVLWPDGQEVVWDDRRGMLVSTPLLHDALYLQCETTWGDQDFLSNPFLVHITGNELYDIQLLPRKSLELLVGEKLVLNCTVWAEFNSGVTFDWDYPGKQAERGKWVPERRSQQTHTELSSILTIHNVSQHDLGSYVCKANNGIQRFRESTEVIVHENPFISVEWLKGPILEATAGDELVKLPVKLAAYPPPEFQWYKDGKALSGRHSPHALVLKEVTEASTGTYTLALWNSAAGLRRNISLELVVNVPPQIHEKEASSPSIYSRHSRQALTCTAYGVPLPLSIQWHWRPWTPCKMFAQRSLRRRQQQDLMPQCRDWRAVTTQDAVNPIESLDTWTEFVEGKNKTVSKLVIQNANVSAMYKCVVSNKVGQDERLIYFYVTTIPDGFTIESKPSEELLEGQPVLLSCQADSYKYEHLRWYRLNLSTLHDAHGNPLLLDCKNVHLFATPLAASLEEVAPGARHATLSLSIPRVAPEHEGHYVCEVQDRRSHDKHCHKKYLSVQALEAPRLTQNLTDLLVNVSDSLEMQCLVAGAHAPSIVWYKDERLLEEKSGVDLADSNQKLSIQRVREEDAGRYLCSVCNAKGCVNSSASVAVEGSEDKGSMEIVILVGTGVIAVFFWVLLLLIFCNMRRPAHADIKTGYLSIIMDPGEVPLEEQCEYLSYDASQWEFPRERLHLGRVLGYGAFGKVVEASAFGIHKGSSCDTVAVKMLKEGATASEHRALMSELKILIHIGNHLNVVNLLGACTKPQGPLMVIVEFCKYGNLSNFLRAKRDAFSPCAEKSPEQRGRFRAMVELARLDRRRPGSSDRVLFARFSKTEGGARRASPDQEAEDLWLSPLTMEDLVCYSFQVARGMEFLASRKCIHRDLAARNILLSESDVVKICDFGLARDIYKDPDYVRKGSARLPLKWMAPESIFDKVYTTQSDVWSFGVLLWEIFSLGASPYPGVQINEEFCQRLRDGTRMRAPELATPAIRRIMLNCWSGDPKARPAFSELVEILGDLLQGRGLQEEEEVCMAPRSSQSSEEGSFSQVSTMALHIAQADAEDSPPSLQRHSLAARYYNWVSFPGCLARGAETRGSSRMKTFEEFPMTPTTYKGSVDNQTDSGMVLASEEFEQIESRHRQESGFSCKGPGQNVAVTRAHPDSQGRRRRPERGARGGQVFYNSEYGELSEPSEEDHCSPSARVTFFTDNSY
Procedure: as §1

[15] = molecular target: T15, FMS (Homo sapiens, UniProt P07333); test: ProfilerPro Kinase Selectivity, FMS
T15 construct: purchased Caliper LifeSciences
Procedure: as §1

[16] = molecular target: T16, FYN (Homo sapiens, UniProt P06241); test: ProfilerPro Kinase Selectivity, FYN
T16 construct: purchased Caliper LifeSciences
Procedure: as §1

[17] = molecular target: T17, IGF1R (Homo sapiens, UniProt P08069); test: ProfilerPro Kinase Selectivity, IGF1R
T17 construct: purchased Caliper LifeSciences
Procedure: as §1

[18] = molecular target: T18, IKKB (Homo sapiens, UniProt O14920); test: ProfilerPro Kinase Selectivity, IKKB
T18 construct: purchased Caliper LifeSciences
T18 sequence (O14920 whole entry, species assumed): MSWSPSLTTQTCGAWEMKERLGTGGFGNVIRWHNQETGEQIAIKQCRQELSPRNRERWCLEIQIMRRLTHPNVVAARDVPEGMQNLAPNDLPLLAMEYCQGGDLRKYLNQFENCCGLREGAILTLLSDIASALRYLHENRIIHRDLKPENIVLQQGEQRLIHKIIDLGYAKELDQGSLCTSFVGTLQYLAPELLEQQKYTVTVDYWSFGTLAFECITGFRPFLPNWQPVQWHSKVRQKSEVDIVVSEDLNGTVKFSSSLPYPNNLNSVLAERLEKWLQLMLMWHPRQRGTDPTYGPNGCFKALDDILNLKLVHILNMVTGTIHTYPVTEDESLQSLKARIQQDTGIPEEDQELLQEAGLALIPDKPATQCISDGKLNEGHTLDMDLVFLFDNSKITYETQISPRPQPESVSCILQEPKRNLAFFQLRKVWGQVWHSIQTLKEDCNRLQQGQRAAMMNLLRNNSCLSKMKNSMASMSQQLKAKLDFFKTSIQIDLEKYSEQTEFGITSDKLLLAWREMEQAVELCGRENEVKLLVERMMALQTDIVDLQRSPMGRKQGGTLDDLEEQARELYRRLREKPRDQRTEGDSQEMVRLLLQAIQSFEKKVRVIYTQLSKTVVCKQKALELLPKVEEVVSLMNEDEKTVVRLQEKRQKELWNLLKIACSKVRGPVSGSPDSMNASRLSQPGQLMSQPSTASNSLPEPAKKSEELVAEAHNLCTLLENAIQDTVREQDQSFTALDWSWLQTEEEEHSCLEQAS
Procedure: as §1

[19] = molecular target: T19, JAK2 (Homo sapiens, UniProt O60674); test: ProfilerPro Kinase Selectivity, JAK2
T19 construct: purchased Caliper LifeSciences
Procedure: as §1

[20] = molecular target: T20, LTK (Homo sapiens, UniProt P29376); test: ProfilerPro Kinase Selectivity, LTK
T20 construct: purchased Caliper LifeSciences
Procedure: as §1

[21] = molecular target: T21, LYNB (Homo sapiens, UniProt P07948); test: ProfilerPro Kinase Selectivity, LYNB
T21 construct: purchased Caliper LifeSciences
Procedure: as §1

[22] = molecular target: T22, MARK2 (Homo sapiens, UniProt Q7KZI7); test: ProfilerPro Kinase Selectivity, MARK2
T22 construct: purchased Caliper LifeSciences
T22 sequence (Q7KZI7 whole entry, species assumed): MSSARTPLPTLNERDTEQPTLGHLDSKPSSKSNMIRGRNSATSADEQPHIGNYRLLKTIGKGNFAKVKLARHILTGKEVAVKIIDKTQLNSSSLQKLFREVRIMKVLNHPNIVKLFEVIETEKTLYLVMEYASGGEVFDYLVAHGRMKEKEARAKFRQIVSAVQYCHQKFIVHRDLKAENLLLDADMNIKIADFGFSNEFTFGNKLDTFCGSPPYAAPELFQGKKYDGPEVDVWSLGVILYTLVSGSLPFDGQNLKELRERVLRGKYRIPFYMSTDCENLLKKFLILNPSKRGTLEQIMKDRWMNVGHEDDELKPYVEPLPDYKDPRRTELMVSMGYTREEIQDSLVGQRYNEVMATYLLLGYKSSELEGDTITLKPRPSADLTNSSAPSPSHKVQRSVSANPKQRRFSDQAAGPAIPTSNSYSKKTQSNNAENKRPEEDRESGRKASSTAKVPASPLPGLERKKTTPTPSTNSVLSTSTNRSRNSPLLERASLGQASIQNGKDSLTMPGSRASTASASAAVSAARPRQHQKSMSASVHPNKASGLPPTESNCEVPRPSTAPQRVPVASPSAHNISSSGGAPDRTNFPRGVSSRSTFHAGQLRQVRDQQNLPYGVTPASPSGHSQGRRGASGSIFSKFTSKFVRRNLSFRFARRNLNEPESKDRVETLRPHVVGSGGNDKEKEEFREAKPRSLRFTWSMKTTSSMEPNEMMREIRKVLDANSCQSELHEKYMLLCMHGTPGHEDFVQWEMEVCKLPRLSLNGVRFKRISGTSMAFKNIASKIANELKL
Procedure: as §1

[23] = molecular target: T23, MET (Homo sapiens, UniProt P08581); test: ProfilerPro Kinase Selectivity, MET
T23 construct: purchased Caliper LifeSciences
Procedure: as §1

[24] = molecular target: T24, MNK1 (Homo sapiens, UniProt Q9BUB5); test: ProfilerPro Kinase Selectivity, MNK1
T24 construct: purchased Caliper LifeSciences
Procedure: as §1

[25] = molecular target: T25, MST1R (Homo sapiens, UniProt Q04912); test: ProfilerPro Kinase Selectivity, MST1R
T25 construct: purchased Caliper LifeSciences
Procedure: as §1

[26] = molecular target: T26, NEK2 (Homo sapiens, UniProt P51955); test: ProfilerPro Kinase Selectivity, NEK2
T26 construct: purchased Caliper LifeSciences
Procedure: as §1

[27] = molecular target: T27, P38A (Homo sapiens, UniProt Q16539); test: ProfilerPro Kinase Selectivity, P38A
T27 construct: purchased Caliper LifeSciences
T27 sequence (Q16539 2-360 limits assumed): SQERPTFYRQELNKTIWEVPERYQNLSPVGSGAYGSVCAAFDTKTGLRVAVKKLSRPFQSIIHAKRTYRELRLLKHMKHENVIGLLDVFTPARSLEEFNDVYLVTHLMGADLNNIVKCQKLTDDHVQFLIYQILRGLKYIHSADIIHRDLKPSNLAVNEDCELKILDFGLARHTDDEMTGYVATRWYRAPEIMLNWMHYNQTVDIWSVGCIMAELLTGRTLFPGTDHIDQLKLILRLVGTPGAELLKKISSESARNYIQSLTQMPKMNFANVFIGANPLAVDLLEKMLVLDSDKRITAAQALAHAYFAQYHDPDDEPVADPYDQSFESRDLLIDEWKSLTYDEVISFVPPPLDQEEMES
Procedure: as §1

[28] = molecular target: T28, P38A/SAPK2A T106M (Homo sapiens, UniProt Q16539, T106M); test: ProfilerPro Kinase Selectivity, P38A/SAPK2A T106M
T28 construct: purchased Caliper LifeSciences
T28 sequence (Q16539 2-360 T106M): as the sequence (Q16539 2-360 limits assumed) above, with T105M counted along it
Procedure: as §1

[29] = molecular target: T29, P38B2 (Homo sapiens, UniProt Q15759); test: ProfilerPro Kinase Selectivity, P38B2
T29 construct: purchased Caliper LifeSciences
Procedure: as §1

[30] = molecular target: T30, PDGFR A(550) (Homo sapiens, UniProt P16234); test: ProfilerPro Kinase Selectivity, PDGFR A(550)
T30 construct: purchased Caliper LifeSciences
Procedure: as §1

[31] = molecular target: T31, PHKG1 (Homo sapiens, UniProt Q16816); test: ProfilerPro Kinase Selectivity, PHKG1
T31 construct: purchased Caliper LifeSciences
Procedure: as §1

[32] = molecular target: T32, PKG1A (Homo sapiens, UniProt Q13976); test: ProfilerPro Kinase Selectivity, PKG1A
T32 construct: purchased Caliper LifeSciences
Procedure: as §1

[33] = molecular target: T33, PRKCA (Homo sapiens, UniProt P17252); test: ProfilerPro Kinase Selectivity, PRKCA
T33 construct: purchased Caliper LifeSciences
Procedure: as §1

[34] = molecular target: T34, PRKCB1 (Homo sapiens, UniProt P05771); test: ProfilerPro Kinase Selectivity, PRKCB1
T34 construct: purchased Caliper LifeSciences
Procedure: as §1

[35] = molecular target: T35, RET V804L (Homo sapiens, UniProt P07949, V804L); test: ProfilerPro Kinase Selectivity, RET V804L
T35 construct: purchased Caliper LifeSciences
Procedure: as §1

[36] = molecular target: T36, SGK2 (Homo sapiens, UniProt Q9HBY8); test: ProfilerPro Kinase Selectivity, SGK2
T36 construct: purchased Caliper LifeSciences
Procedure: as §1

[37] = molecular target: T37, SRM (Homo sapiens, UniProt Q9H3Y6); test: ProfilerPro Kinase Selectivity, SRM
T37 construct: purchased Caliper LifeSciences
Procedure: as §1

[38] = molecular target: T38, TRKC (Homo sapiens, UniProt Q16288); test: ProfilerPro Kinase Selectivity, TRKC
T38 construct: purchased Caliper LifeSciences
Procedure: as §1

SMILES	inhibition at 10 µM [1] [%]	inhibition at 10 µM [2] [%]	inhibition at 10 µM [3] [%]	inhibition at 10 µM [4] [%]	inhibition at 10 µM [5] [%]	inhibition at 10 µM [6] [%]	inhibition at 10 µM [7] [%]	inhibition at 10 µM [8] [%]	inhibition at 10 µM [9] [%]	inhibition at 10 µM [10] [%]	inhibition at 10 µM [11] [%]	inhibition at 10 µM [12] [%]	inhibition at 10 µM [13] [%]	inhibition at 10 µM [14] [%]	inhibition at 10 µM [15] [%]	inhibition at 10 µM [16] [%]	inhibition at 10 µM [17] [%]	inhibition at 10 µM [18] [%]	inhibition at 10 µM [19] [%]	inhibition at 10 µM [20] [%]	further results
CSc1sc(-c2cc[nH]n2)c2c1C(=O)CCC2 [Example 1, 3-(Methylsulfanyl)-1-(1H-pyrazol-3-yl)-6,7-dihydro-2-benzothiophen-4(5H)-one]	12.7	16.9	9.9	2.8	-6.8	-2.7	6.6	-10.9	44.6	31.3	-2.5	3.9	-2.2	22.5	-36.1	1.2	5.4	9.3	19.4	16	inhibition at 10 µM [21]: 8.2%; inhibition at 10 µM [22]: 0.3%; inhibition at 10 µM [23]: 8.2%; inhibition at 10 µM [24]: 1.7%; inhibition at 10 µM [25]: -1.3%; inhibition at 10 µM [26]: -0.8%; inhibition at 10 µM [27]: -2.3%; inhibition at 10 µM [28]: 1.2%; inhibition at 10 µM [29]: -1.3%; inhibition at 10 µM [30]: 1.5%; inhibition at 10 µM [31]: 6.3%; inhibition at 10 µM [32]: -5.9%; inhibition at 10 µM [33]: 2.6%; inhibition at 10 µM [34]: -5.1%; inhibition at 10 µM [35]: 41.5%; inhibition at 10 µM [36]: 10.6%; inhibition at 10 µM [37]: 3.5%; inhibition at 10 µM [38]: 10.3%
CC1(C)CC(=O)c2c(SC3CCCC3)sc(-c3cc[nH]n3)c2C1 [Example 7, 3-(Cyclopentylsulfanyl)-6,6-dimethyl-1-(1H-pyrazol-3-yl)-6,7-dihydro-2-benzothiophen-4(5H)-one]	1.9	3.9	2.6	7.5	-6.8	4.5	3.2	-30.7	12.9	1.3	-2.1	13.7	-2.9	2	-6.5	2.5	-3.7	0.5	5.3	19.5	inhibition at 10 µM [21]: -4.9%; inhibition at 10 µM [22]: 9.2%; inhibition at 10 µM [23]: -0.9%; inhibition at 10 µM [24]: -5.6%; inhibition at 10 µM [25]: -7%; inhibition at 10 µM [26]: 0.9%; inhibition at 10 µM [27]: 0.6%; inhibition at 10 µM [28]: 3.7%; inhibition at 10 µM [29]: -0.7%; inhibition at 10 µM [30]: -13.8%; inhibition at 10 µM [31]: 4.6%; inhibition at 10 µM [32]: 1.9%; inhibition at 10 µM [33]: 4.3%; inhibition at 10 µM [34]: -3.9%; inhibition at 10 µM [35]: 15.7%; inhibition at 10 µM [36]: 5.4%; inhibition at 10 µM [37]: 3%; inhibition at 10 µM [38]: 0.5%
